Assay results from US11110105B2, “Compounds, composition and uses thereof for treating cancer” (INSTITUT GUSTAVE ROUSSY, priority 2017, dated 2021).
Entries after “also recorded” stand apart in the source; their conditions may differ. Where two headings read alike, the source gives them in different places.

Assays:
[1] = test system: MCA205 globin-SL8-intron (MCA205 GI) tumors; experiment: Tumor challenge, MCA205 globin-SL8-intron in immunocompetent C57BL/6 mice; assay type: in vivo, mouse; conditions: for tumor growth: C57BL/6
Description: (A) Experimental settings. (B) MCA205 globin-SL8-intron cells were inoculated subcutaneously on the mice flank. Five days and fifteen days later, 6 mg/kg, 12 mg/kg or 18 mg/kg isoginkgetin was injected intraperitoneally. Tumor size was assessed every 3 to 4 days until day 27. Each line represents the tumor size in area (mm^2) of 6 mice in each group. Data are given as mean ±SEM. *p<0.05 (ANOVA with Tukey's multiple comparison test comparing all groups).
(§1) (A) Experimental settings. Growth of (B) sarcoma MCA205 or (C) melanoma B16F10 cells that both stably express the globin-SL8-intron construct or (D) MCA205 Wild Type (WT) or (E) B16F10 WT cells that were subcutaneously inoculated on the flank of immunocompetent C57BL/6 mice injected intraperitoneally with 12 mg/kg or 18 mg/kg of isoginkgetin at days 5, 10 and 15 after inoculation. Tumor size was assessed every 3 to 4 days until reaching the established ethical endpoints. Each line represents the tumor size in area (mm^2) of 6 mice in each group. Size in area (mm^2) of (F) MCA205 globin-SL8-intron, (G) B16F10 globin-SL8-intron, (H) MCA205 WT or (I) B16F10 WT tumors subcutaneously inoculated on the flank of immunodeficient Nu/Nu Nude mice injected intraperitoneally with 18 mg/kg of isoginkgetin at days 5, 10 and 15 after inoculation. Data are presented at the day before the endpoints are reached.
Data are given as mean ±SEM. *P<0.05, **P<0.01, ***P<0.001 (unpaired student t test). […] Tumor size was assessed every 3 to 4 days until reaching the established ethical endpoints. Each line represents the tumor size in area (mm^2) of at least 6 mice in each group. Data are given as mean ±SEM. *p<0.05, **p<0.01 (ANOVA with Tukey's multiple comparison test comparing all groups). […] A Log-rank (Mantel-Cox) test was performed.
C57B1/6J female mice are obtained from Harlan. NU/NU nude mouse mice are obtained from Charles River. At 7 weeks old, mice are injected subcutaneously on the right flank with 5×10^4 MCA205-Globin-SL8-intron cells or with 4×10^4 B16F10-Globin-SL8-intron cells along with matrigel (VWR). […] Fifteen days after challenge mouse are again treated intreaperitonealy with the same drug. Area of the tumor is recorded every 3 to 4 days until day 27. All animal experiments were carried out in compliance with French and European laws and regulations. Results are expressed as mean ±SEM. *p<0.05, **P<0.01, ***P<0.001 (ANOVA with Tukey's multiple comparison test comparing all groups).

[2] = test system: MCA205 globin-SL8-intron tumors; experiment: Tumor challenge, MCA205 globin-SL8-intron in immunodeficient Nu/Nu nude mice; assay type: in vivo, mouse; conditions: 18 mg/kg intraperitoneally
Description: (D) MCA205 globin-SL8-intron cells were inoculated subcutaneously on the […] mice flank. […] Tumor size was assessed every 3 to 4 days until day 27. Each line represents the tumor size in area (mm^2) of 6 mice in each group. Data are given as mean ±SEM. *p<0.05, **p<0.01 (ANOVA with Tukey's multiple comparison test comparing all groups). (E) MCA205 globin-SL8-intron cells were inoculated subcutaneously on the Nude nu/nu mice flank. […] Tumor size was assessed every 3 to 4 days until day 27. Each line represents the tumor size in area (mm^2) of 6 mice in each group. Data are given as mean ±SEM. (A) Experimental settings. Growth of (B) sarcoma MCA205 or (C) melanoma B16F10 cells that both stably express the globin-SL8-intron construct or (D) MCA205 Wild Type (WT) or (E) B16F10 WT cells that were subcutaneously inoculated on the flank of immunocompetent C57BL/6 mice injected intraperitoneally with 12 mg/kg or 18 mg/kg of isoginkgetin at days 5, 10 and 15 after inoculation. Tumor size was assessed every 3 to 4 days until reaching the established ethical endpoints. Each line represents the tumor size in area (mm^2) of 6 mice in each group. […] Area of the tumor is recorded every 3 to 4 days until day 27. […] Results are expressed as mean ±SEM. *[…] with Tukey's multiple comparison test comparing all groups).

Water solubility = assay type: physicochemical
[3] = test system: H2-K^b molecules at the cell surface of MCA205 cells; experiment: Flow cytometry of H2-K^b expression, MCA205; assay type: cell-based, mouse
Excerpt: Flow cytometry analyses of H2-K^b expression on MCA205 and B16F10 cells treated with (A) isoginkgetin. Flow cytometry analyses of transiently expressed H2-K^b expression on A375, A549 and MRC5 cells treated with (B) isoginkgetin.

[4] = test system: B16F10 globin-SL8-intron (B16F10 GI) tumor; experiment: Tumor challenge, B16F10 globin-SL8-intron in immunocompetent C57BL/6 mice; assay type: in vivo, mouse; conditions: 18 mg/kg intraperitoneally, days 5, 10 and 15
Description: as §1
Data are given as mean ±SEM. *P<0.05, **P<0.01, ***P<0.001 (unpaired student t test). […] Tumor size was assessed every 3 to 4 days until reaching the established ethical endpoints. […]
C57B1/6J female mice are obtained from Harlan. […] Area of the tumor is recorded every 3 to 4 days until day 27. […] Results are expressed as mean ±SEM. *p<0.05, **P<0.01, ***P<0.001 (ANOVA with Tukey's multiple comparison test comparing all groups).

[5] = test system: splicing of the Globin-SL8-intron gene product in MCA205 cells; experiment: qRT-PCR of unspliced/spliced globin-SL8-intron RNA, MCA205; assay type: cell-based, mouse; conditions: 15 μM isoginkgetin, 35 μM IP2 or 35 μM M2P2, 48 hours
Description: RNA was extracted and qRT-PCR was performed with primers amplifying the unspliced (intron) and the spliced (exon) globin-SL8-intron RNA. Data are given as mean ±SEM of the ratio of 2^−ΔΔCt intron and 2^−ΔΔCt exon of at least three independent experiments. […] Data are express as mean ±SEM of the percentage of viable cells compared to the control condition of at least three independent experiments. *P<0.05, **P<0.01, ***P<0.001 (unpaired student t test).
In addition, it has been shown that cancer cells can acquire deficiencies in the splicing machinery that benefit their growth, for example by preventing the expression of tumor suppressor genes.

[6] = 18 mg/kg intraperitoneally, days 5, 10 and 15
[7] = 18 mg/kg intraperitoneally, days 5 and 15

| SMILES | reduction of tumor growth at day 27 after challenge ([1]; 6 mg/kg intraperitoneally, days 5 and 15) | reduction of tumor size at day 27 after challenge ([1]; 12 mg/kg intraperitoneally, days 5, 10 and 15) | reduction of tumor size at day 27 after challenge [1, 6] | reduction of tumor growth at day 27 after challenge [1, 7] | survivors 100 days after tumor inoculation ([1]; 18 mg/kg intraperitoneally, Kaplan Meier) | tumor growth ([2]; days 5, 10 and 15) | water solubility (Water solubility) | survival (Kaplan Meier) ([1]; 18 mg/kg intraperitoneally) | tumor growth [1, 6] | tumor growth [1, 7] | expression of the H2-K^b molecules at the cell surface [3] | tumor growth ([2]; days 5 and 15) | tumor growth [4] | splicing of Globin-SL8-intron RNA (ratio unspliced/spliced, qRT-PCR) [5] | water solubility (Water solubility; listed as M2P2) |
| --- | --- | --- | --- | --- | --- | --- | --- | --- | --- | --- | --- | --- | --- | --- | --- |
| COc1ccc(-c2cc(=O)c3c(O)cc(O)c(-c4cc(-c5cc(=O)c6c(O)cc(O)cc6o5)ccc4OC)c3o2)cc1 [Isoginkgetin, isoginkgetin] | 50% | over 50% | over 50% | 50% | around 30% | No effect | insoluble in water | – | – | – | – | – | – | – | – |
| COc1ccc(-c2cc(=O)c3c(OC)cc(OP(=O)([O-])[O-])c(-c4cc(-c5cc(=O)c6c(OC)cc(OP(=O)([O-])[O-])cc6o5)ccc4OC)c3o2)cc1.[Na+].[Na+].[Na+].[Na+] [IM2P2] | – | – | – | – | – | – | able to be dissolved in water | does not impact survival | no impact | did not demonstrate any tumor growth decrease | is not affected | any of the compounds used have an effect on the tumor growth | had no effect on growth | has a strong impact on splicing; also recorded: strongly inhibits the splicing | considerably higher than that of the parent compound isoginkgetin |
